The results in this text go back to ChEMBL document CHEMBL5252549, “Recent developments on synthesis and biological activities of γ-carboline” (Eur J Med Chem, 2018).

One data set concerns L5178Y. The experiment in a line: Cytotoxicity against mouse L5178Y cells. Type of data set: functional, cell-based.
Data set [1] has as its target Cholinesterase (Homo sapiens, UniProt P06276). The experiment in a line: Inhibition of BChE (unknown origin).
In data set [2] the target is Glutamate [NMDA] receptor. The experiment in a line: Displacement of [3H]ifenprodyl from NMDA receptor (unknown origin). Type of data set: protein-complex assay, Homo sapiens.
The target in data set [3] is T1, Glutamate receptor ionotropic, NMDA 2B (Homo sapiens, UniProt Q05586+Q13224). The experiment in a line: Displacement of [3H]ifenprodyl from NMDA receptor NR2B subunit (unknown origin).
Data set [4] has as its target T1, Glutamate receptor ionotropic, NMDA 2B. Put plainly: Displacement of [3H]MK801 from NMDA receptor NR2B subunit (unknown origin).
The nature of data set [5]: Selectivity index, ratio of CC50 for cytotoxicity against MDBK cells to EC50 for antiviral activity against bovine viral diarrhea virus 1 infected in MDBK cells. Type of data set: toxicity, cell-based. Conditions: cattle, read-out: Ratio CC50/EC50.
The next data set relates to Escherichia coli. The experiment in a line: Antibacterial activity against Escherichia coli assessed as inhibition of bacterial growth incubated for 24 hrs by agar diffusion assay. Type of data set: functional, organism-based.
Data set [6] has as its system Bovine viral diarrhea virus 1. The experiment in a line: Antiviral activity against bovine viral diarrhea virus 1 infected in MDBK cells assessed as reduction in viral replication-induced cell destruction incubated for 3 days. Type of data set: functional, organism-based. Conditions: Bovine viral diarrhea virus isolates and strains, 72 h.
Another data set has as its target Acetylcholinesterase (Homo sapiens, UniProt P22303). The experiment in a line: Inhibition of human erythrocyte AChE incubated for 10 mins by Ellman's method. Type of data set: cell-based.
The target of data set [7] is Cholinesterase (Equus caballus, UniProt P81908). The experiment in a line: Inhibition of horse serum BChE incubated for 10 mins by Ellman's method. Type of data set: cell-free.

In brackets after ≈: the same amount, converted by molar mass. Structures can show the parent of a compound that is named as a salt.

T1 sequence (Q13224 whole entry, one chain of several): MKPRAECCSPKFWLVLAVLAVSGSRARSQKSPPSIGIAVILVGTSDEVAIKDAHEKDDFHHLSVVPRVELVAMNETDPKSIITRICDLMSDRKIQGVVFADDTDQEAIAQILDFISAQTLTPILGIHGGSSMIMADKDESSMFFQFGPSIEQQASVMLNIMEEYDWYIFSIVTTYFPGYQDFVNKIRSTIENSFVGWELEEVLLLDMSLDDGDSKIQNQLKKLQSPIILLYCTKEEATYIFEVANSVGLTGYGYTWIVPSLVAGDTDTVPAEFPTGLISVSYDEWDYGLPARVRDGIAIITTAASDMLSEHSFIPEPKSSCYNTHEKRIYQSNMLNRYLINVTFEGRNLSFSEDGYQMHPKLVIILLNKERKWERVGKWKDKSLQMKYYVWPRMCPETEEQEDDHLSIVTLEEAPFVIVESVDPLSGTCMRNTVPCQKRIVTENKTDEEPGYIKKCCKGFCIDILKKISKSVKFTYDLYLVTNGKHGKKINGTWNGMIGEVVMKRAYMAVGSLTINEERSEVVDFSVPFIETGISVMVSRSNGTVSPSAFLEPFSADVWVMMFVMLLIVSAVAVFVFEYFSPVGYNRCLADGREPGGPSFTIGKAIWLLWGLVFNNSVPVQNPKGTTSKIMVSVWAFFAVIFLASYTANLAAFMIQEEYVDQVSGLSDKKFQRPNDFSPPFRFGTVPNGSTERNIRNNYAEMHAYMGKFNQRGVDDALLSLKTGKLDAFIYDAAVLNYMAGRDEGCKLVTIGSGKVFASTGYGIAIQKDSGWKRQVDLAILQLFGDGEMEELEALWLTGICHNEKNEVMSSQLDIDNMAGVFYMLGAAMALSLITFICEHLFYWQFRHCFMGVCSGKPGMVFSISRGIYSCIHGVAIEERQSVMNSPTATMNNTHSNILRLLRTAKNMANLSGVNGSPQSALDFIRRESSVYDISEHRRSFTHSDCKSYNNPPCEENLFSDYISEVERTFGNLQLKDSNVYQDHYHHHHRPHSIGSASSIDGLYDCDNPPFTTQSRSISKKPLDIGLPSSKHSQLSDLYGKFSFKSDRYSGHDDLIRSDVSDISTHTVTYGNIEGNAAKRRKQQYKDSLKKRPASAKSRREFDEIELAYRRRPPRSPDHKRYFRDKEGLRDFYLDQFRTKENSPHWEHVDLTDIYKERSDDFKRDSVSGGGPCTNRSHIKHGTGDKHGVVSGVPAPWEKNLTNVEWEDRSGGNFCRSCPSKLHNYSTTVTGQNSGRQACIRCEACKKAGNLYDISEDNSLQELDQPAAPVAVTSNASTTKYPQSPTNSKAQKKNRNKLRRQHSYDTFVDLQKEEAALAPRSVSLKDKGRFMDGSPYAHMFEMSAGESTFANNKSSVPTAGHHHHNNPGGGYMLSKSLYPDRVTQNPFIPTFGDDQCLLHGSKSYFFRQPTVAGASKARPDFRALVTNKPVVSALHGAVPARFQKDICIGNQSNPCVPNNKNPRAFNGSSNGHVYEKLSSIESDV
Chain of Cholinesterase (Homo sapiens, UniProt P06276) (P06276 whole entry): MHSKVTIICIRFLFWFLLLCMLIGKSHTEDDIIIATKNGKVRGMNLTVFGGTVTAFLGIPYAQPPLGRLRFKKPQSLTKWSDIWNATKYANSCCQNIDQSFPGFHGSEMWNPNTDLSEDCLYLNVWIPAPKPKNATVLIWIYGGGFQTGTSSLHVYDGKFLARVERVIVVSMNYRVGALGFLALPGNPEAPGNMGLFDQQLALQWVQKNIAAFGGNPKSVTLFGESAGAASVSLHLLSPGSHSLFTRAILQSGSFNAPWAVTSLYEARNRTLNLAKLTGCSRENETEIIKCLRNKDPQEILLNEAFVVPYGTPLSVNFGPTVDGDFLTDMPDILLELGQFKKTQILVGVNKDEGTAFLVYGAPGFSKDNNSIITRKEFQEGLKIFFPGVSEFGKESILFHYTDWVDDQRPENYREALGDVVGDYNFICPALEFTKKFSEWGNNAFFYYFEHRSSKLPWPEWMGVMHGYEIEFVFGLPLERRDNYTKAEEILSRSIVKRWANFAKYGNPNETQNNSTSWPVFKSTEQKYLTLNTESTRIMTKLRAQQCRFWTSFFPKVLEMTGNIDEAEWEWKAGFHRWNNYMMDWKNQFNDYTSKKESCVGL
Chain of Cholinesterase (Equus caballus, UniProt P81908) (P81908 whole entry): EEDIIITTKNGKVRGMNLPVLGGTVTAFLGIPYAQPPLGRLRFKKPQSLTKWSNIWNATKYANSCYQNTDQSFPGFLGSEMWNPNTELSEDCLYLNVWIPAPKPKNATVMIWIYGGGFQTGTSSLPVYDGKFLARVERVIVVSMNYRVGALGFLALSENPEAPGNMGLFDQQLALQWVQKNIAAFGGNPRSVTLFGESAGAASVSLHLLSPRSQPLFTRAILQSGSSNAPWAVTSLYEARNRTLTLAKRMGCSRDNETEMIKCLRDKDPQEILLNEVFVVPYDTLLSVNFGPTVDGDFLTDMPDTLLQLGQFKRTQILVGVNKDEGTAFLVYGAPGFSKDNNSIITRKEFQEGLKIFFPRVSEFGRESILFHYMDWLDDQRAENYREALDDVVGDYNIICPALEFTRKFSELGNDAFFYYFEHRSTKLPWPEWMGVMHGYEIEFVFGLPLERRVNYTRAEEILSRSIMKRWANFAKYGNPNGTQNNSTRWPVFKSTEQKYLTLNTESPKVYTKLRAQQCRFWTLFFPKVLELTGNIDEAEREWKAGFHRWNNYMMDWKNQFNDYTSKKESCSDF
Chain of Acetylcholinesterase (P22303 whole entry): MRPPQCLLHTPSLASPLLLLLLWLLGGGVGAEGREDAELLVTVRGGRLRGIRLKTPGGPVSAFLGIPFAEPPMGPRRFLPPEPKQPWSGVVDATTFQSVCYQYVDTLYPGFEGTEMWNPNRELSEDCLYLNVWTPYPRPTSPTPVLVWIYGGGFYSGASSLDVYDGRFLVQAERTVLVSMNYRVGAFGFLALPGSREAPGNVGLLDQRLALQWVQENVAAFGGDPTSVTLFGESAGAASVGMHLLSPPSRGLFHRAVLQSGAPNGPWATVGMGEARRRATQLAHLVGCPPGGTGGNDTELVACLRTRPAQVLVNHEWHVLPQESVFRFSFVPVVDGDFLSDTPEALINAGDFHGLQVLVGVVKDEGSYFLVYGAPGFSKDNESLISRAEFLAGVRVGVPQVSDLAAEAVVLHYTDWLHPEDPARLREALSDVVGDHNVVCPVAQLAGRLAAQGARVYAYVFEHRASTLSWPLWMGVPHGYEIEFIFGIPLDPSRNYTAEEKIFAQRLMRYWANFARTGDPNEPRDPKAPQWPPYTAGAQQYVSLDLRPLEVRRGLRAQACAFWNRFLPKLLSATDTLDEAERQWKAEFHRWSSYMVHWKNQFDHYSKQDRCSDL

With `Nc1nccc(-c2cncc3c2[nH]c2ccccc23)n1`, it took 9.1 µg/mL (≈ 34.8 µM) to reach a half-maximal effect in the data set with L5178Y (EC50).

`CN1CCc2c(c3ccccc3n2CC(O)Cn2c3c(c4ccccc42)CCCC3)C1` (stereo unspecified) showed a half-inhibitory concentration (IC50) on Cholinesterase [1] of 1.06 µM.

In data set [2], `CCN1CCc2c(c3cc(C)ccc3n2CC(O)Cn2c3ccccc3c3ccccc32)C1` (stereo unspecified) yielded a half-inhibitory concentration (IC50) of 12.5 µM.

Regarding `CCN1CCc2c(c3cc(C)ccc3n2-c2c(C(F)(F)F)nc3ccccn23)C1`, the concentration for half-maximal inhibition (IC50) in [3] was 39.5 µM.

With `CCc1ccc2c(c1)c1c(n2CCC(=O)N2c3ccccc3Sc3ccccc32)CCN(C)C1`, the IC50 in data set [4] came out at 13.2 µM; in data set [3], 15.4 µM.

In turn, `Cc1ccc2c(c1)c1c(n2CC(O)Cn2c3c(c4ccccc42)CCCC3)CCN(C)C1` (stereo unspecified) gave a half-maximal inhibitory concentration (IC50) at Cholinesterase [1] of 3.9 µM.

In data set [3], `Cc1ccc2c(c1)c1c(n2CCC(=O)N(C)c2c(C(F)(F)F)nc3cc(C)ccn23)CCN(C)C1` gave an IC50 of 32.6 µM.

`c1ccc2c(c1)[nH]c1ccncc12`: in [5], the selectivity ratio is 20.

Consider `CCN1CCc2c(c3cc(F)ccc3n2CC(O)Cn2c3c(c4ccccc42)CCCC3)C1` (stereo unspecified), for which the IC50 against Cholinesterase [1] is 5.83 µM.

For the molecule `CCN1CCc2c(c3ccccc3n2CC(O)Cn2c3c(c4ccccc42)CCCC3)C1` (stereo unspecified), on Cholinesterase [1], it took 2.77 µM to reach half-maximal inhibition (IC50).

`CN(C)[C@@H]1C(O)=C(C(N)=O)C(=O)[C@@]2(O)C(O)=C3C(=O)c4c(O)cccc4[C@@](C)(O)[C@H]3C[C@@H]12` [TETRACYCLINE HYDROCHLORIDE]: the IC50 with Escherichia coli is 30 µM.

In [3], `Cc1ccc2c(c1)c1c(n2CCc2ccc(C)nc2)CCN(C)C1` [LATREPIRDINE] registered an IC50 of 82.4 µM.

For the molecule `Cc1ncc2c3ccccc3n(C)c2c1C`, the selectivity ratio in [5] came out at 2060. The concentration giving a half-maximal response (EC50) in [6] amounted to 0.0035 µM.

With `CN1CCc2c(c3cc(F)ccc3n2CC(O)Cn2c3c(c4ccccc42)CCCC3)C1` (stereo unspecified), on Cholinesterase [1], the 50% inhibitory concentration (IC50) was found to be 5.03 µM.

Take `CCN1CCc2c(c3cc(F)ccc3n2CCC(=O)N2c3ccccc3Sc3ccccc32)C1`: the 50% inhibitory concentration (IC50) came to 15.8 µM in data set [4] and 8.8 µM in data set [3].

For `Cn1cc2c3ccccc3n(C)c2c(Cc2ccccc2Cl)c1=O`, the IC50 with Escherichia coli worked out at 17 µM.

As for `CCN1CCc2c(c3cc(C)ccc3n2CC(O)Cn2c3c(c4ccccc42)CCCC3)C1` (stereo unspecified), the IC50 against Cholinesterase [1] came to 5.23 µM.

`COc1ccc2c(c1)c1c(n2CC(O)CN2c3ccccc3Sc3ccccc32)CCN(C)C1` (stereo unspecified) came in with an IC50 on Cholinesterase [1] of 0.39 µM.

As for `CCN1CCc2c(c3ccccc3n2CCC(=O)N2c3ccccc3Sc3ccccc32)C1`, the half-inhibitory concentration (IC50) in [4] came out at 14.6 µM; in data set [3] it was 13.4 µM.

As for `CN1CCc2c(c3ccccc3n2Cc2ccccc2C(=O)NCCO[N+](=O)[O-])C1`, the IC50 amounted to 14.8 µM at Acetylcholinesterase and 3.68 µM on Cholinesterase [7].

`Cc1ccc2c(c1)c1c(n2CC(O)Cn2c3ccccc3c3ccccc32)CCN(C)C1` (stereo unspecified) registered an IC50 in [2] of 11.7 µM.
